In the supplement of paper PMC11061612:

How the values were obtained:
Assay in all cases: combination Emax (second highest fraction inhibited in the dose matrix, 72 h); higher = more inhibition; extreme values may be limits of the assay
[1] = tested on: PSN1 (Pancreatic Carcinoma)
Summary of the method: (§1)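 After 24 hours at 37°C and 5% CO2 in 1536-well plates, cells in DMEM/F12 or RPMI plus 10% FBS received two-drug dose matrices for 72 hours. Viability came from CellTiter-Glo 2.0 luminescence and was scaled as inhibition, anchored at 0 by vehicle wells and at 1 by blank wells. Combination Emax is taken as the second-highest inhibition in the matrix, and Bliss excess as the observed combination effect less EA + EB − EA·EB, with EA and EB the single-agent effects.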

[2] = tested on: MKN45 (Gastric Carcinoma)
Summary of the method: as §1

[3] = tested on: PC-3_[JPC-3] (Lung Adenocarcinoma)
Summary of the method: as §1

[4] = tested on: REH (B-Lymphoblastic Leukemia)
Summary of the method: as §1

[5] = tested on: VAL (B-Cell Non-Hodgkin's Lymphoma)
Summary of the method: as §1

[6] = tested on: COLO-680N (Esophageal Squamous Cell Carcinoma)
Summary of the method: as §1

[7] = tested on: L-1236 (Hodgkin's Lymphoma)
Summary of the method: as §1

[8] = tested on: OPM-2 (Plasma Cell Myeloma)
Summary of the method: as §1

Structure (SMILES) | combination Emax [1] | combination Emax [2] | combination Emax [3] | combination Emax [4] | combination Emax [5] | combination Emax [6] | combination Emax [7] | combination Emax [8]
C[C@@H]1COCCN1c1cc(C2([S@](C)(=N)=O)CC2)nc(-c2ccnc3[nH]ccc23)n1 [AZD6738] + C1CC(C1)(C(=O)[O-])C(=O)[O-].N.N.[Pt+2] [Carboplatin] (first compound max 10 µM, 7x7, partner max 10 µM) | 0.435 | 0.708 | 0.294 | 0.629 | 0.7 | 0.287 | 0.807 | 0.828
C[C@@H]1COCCN1c1cc(C2([S@](C)(=N)=O)CC2)nc(-c2ccnc3[nH]ccc23)n1 [AZD6738] + Nc1ccn([C@@H]2O[C@H](CO)[C@@H](O)C2(F)F)c(=O)n1 [Gemcitabine] (first compound max 10 µM, 7x7, partner max 0.3 µM) | 0.893 | 0.756 | 0.665 | 0.994 | 0.809 | 0.529 | 0.918 | 0.942
Cc1cc2ncnn2cc1Nc1ncc2c(n1)n(C1CCOCC1)c(=O)n2C [AZD7648] + COc1cc([C@@H]2c3cc4c(cc3[C@@H](O[C@@H]3O[C@@H]5CO[C@@H](C)O[C@H]5[C@H](O)[C@H]3O)[C@H]3COC(=O)[C@H]23)OCO4)cc(OC)c1O [Etoposide] (first compound max 10 µM, 7x7, partner max 10 µM) | 0.834 | 0.582 | 0.415 | 0.976 | 0.905 | 0.404 | 0.845 | 0.788
C[C@@H](Nc1cc(F)cc(F)c1)c1cc(C(=O)N(C)C)cc2c(=O)cc(N3CCOCC3)oc12 [AZD8186] + C1CN(CCC1(C(=O)N[C@@H](CCO)C2=CC=C(C=C2)Cl)N)C3=NC=NC4=C3C=CN4 [AZD5363] (first compound max 10 µM, 7x7, partner max 10 µM) | 0.357 | 0.455 | 0.295 | 0.452 | 0.555 | 0.245 | 0.722 | 0.922
C[C@@H](Nc1cc(F)cc(F)c1)c1cc(C(=O)N(C)C)cc2c(=O)cc(N3CCOCC3)oc12 [AZD8186] + CC(=O)c1c(C)c2cnc(Nc3ccc(N4CCNCC4)cn3)nc2n(C2CCCC2)c1=O [Palbociclib] (first compound max 10 µM, 7x7, partner max 10 µM) | 0.558 | 0.534 | 0.369 | 0.625 | 0.707 | 0.419 | 0.697 | 0.563
C[C@@H](Oc1cc(-c2cnn(C3CCNCC3)c2)cnc1N)c1c(Cl)ccc(F)c1Cl [Crizotinib] + CC1=C(C(=CC=C1)Cl)NC(=O)C2=CN=C(S2)NC3=CC(=NC(=N3)C)N4CCN(CC4)CCO [Dasatinib] (first compound max 10 µM, 7x7, partner max 2 µM) | 0.777 | 0.854 | 0.809 | 0.752 | 0.841 | 0.869 | 0.905 | 0.964
C[C@@H](Oc1cc(-c2cnn(C3CCNCC3)c2)cnc1N)c1c(Cl)ccc(F)c1Cl [Crizotinib] + Cn1cnc2c(F)c(Nc3ccc(Br)cc3Cl)c(C(=O)NOCCO)cc21 [Selumetinib] (first compound max 10 µM, 7x7, partner max 10 µM) | 0.963 | 0.902 | 0.242 | 0.721 | 0.758 | 0.319 | 0.975 | 0.985
CS(=O)(=O)CCNCc1ccc(-c2ccc3ncnc(Nc4ccc(OCc5cccc(F)c5)c(Cl)c4)c3c2)o1 [Lapatinib] + Cn1cnc2c(F)c(Nc3ccc(Br)cc3Cl)c(C(=O)NOCCO)cc21 [Selumetinib] (first compound max 10 µM, 7x7, partner max 10 µM) | 0.748 | 0.635 | 0.653 | 0.237 | 0.597 | 0.408 | 0.712 | 0.533
O=C(c1cc(Cc2n[nH]c(=O)c3ccccc23)ccc1F)N1CCN(C(=O)C2CC2)CC1 [Olaparib] + CC1(C)CCC(CN2CCN(c3ccc(C(=O)NS(=O)(=O)c4ccc(NCC5CCOCC5)c([N+](=O)[O-])c4)c(Oc4cnc5[nH]ccc5c4)c3)CC2)=C(c2ccc(Cl)cc2)C1 [Venetoclax] (first compound max 10 µM, 7x7, partner max 1 µM) | 0.192 | 0.201 | 0.153 | 0.966 | 1 | 0.0836 | 0.37 | 0.256
O=C(c1cc(Cc2n[nH]c(=O)c3ccccc23)ccc1F)N1CCN(C(=O)C2CC2)CC1 [Olaparib] + CN(CC[C@H](CSC1=CC=CC=C1)NC2=C(C=C(C=C2)S(=O)(=O)NC(=O)C3=CC=C(C=C3)N4CCC(CC4)[C@H](C5=CC=CC=C5C6=CC=C(C=C6)Cl)O)S(=O)(=O)C(F)(F)F)CCO [AZD4320] (first compound max 10 µM, 7x7, partner max 1 µM) | 0.21 | 0.164 | 0.138 | 0.986 | 1 | 0.11 | 0.994 | 0.337
O=C(c1cc(Cc2n[nH]c(=O)c3ccccc23)ccc1F)N1CCN(C(=O)C2CC2)CC1 [Olaparib] + COc1nnc2ccc(N3CCC(c4ccc(OCCN5CCN(C)C(=O)[C@H]5C)cc4)CC3)nn12 [AZD5153] (first compound max 10 µM, 7x7, partner max 1 µM) | 0.429 | 0.409 | 0.182 | 0.762 | 0.771 | 0.27 | 0.96 | 1
O=C(c1cc(Cc2n[nH]c(=O)c3ccccc23)ccc1F)N1CCN(C(=O)C2CC2)CC1 [Olaparib] + Cc1c2c(nn1C)CSCc1cc(n(C)n1)CSc1cc(c3ccccc3c1)OCCCc1c(C(=O)O)n(C)c3c-2c(Cl)ccc13 [AZD5991] (first compound max 10 µM, 7x7, partner max 1 µM) | 0.214 | 0.185 | 0.0845 | 0.943 | 0.771 | 0.0855 | 0.53 | 1
N#Cc1cnc(Nc2cc(NC[C@H]3CNCCO3)c(C(F)(F)F)cn2)cn1 [SRA737] + C=CCn1c(=O)c2cnc(Nc3ccc(N4CCN(C)CC4)cc3)nc2n1-c1cccc(C(C)(C)O)n1 [AZD1775] (first compound max 10 µM, partner max 1 µM) | 0.642 | 0.742 | 0.26 | 0.957 | 0.797 | 0.35 | 0.952 | 0.93
N#Cc1cnc(Nc2cc(NC[C@H]3CNCCO3)c(C(F)(F)F)cn2)cn1 [SRA737] + CCc1c2c(nc3ccc(O)cc13)-c1cc3c(c(=O)n1C2)COC(=O)[C@]3(O)CC [SN-38] (first compound max 10 µM, 7x7, partner max 0.3 µM) | 0.908 | 0.868 | 0.72 | 0.991 | 0.947 | 0.552 | 0.944 | 0.926
N#Cc1cnc(Nc2cc(NC[C@H]3CNCCO3)c(C(F)(F)F)cn2)cn1 [SRA737] + Nc1ccn([C@@H]2O[C@H](CO)[C@@H](O)C2(F)F)c(=O)n1 [Gemcitabine] (first compound max 10 µM, 7x7, partner max 0.3 µM) | 0.853 | 0.761 | 0.6 | 0.989 | 0.809 | 0.47 | 0.948 | 0.911
N#Cc1cnc(Nc2cc(NC[C@H]3CNCCO3)c(C(F)(F)F)cn2)cn1 [SRA737] + O=c1[nH]cc(F)c(=O)[nH]1 [5-Fluorouracil] (first compound max 10 µM, 7x7, partner max 20 µM) | 0.748 | 0.697 | 0.102 | 0.798 | 0.775 | 0.387 | 0.94 | 0.84
Cc1nc(-c2cn3c(n2)-c2ccc(-c4cnn(C(C)(C)C(N)=O)c4)cc2OCC3)n(C(C)C)n1 [Taselisib] + O=C(Nc1ccc2[nH]nc(-c3ccncc3)c2c1)[C@@H]1CCN(CC(=O)N2CCN(c3ccc(-c4ncccn4)cc3)CC2)C1 [SCH772984] (first compound max 10 µM, 7x7, partner max 5 µM) | 0.946 | 0.798 | 0.665 | 0.477 | 0.6 | 0.5 | 0.722 | 1
CC1(C)CCC(CN2CCN(c3ccc(C(=O)NS(=O)(=O)c4ccc(NCC5CCOCC5)c([N+](=O)[O-])c4)c(Oc4cnc5[nH]ccc5c4)c3)CC2)=C(c2ccc(Cl)cc2)C1 [Venetoclax] + CS(=O)(=O)CCNCc1ccc(-c2ccc3ncnc(Nc4ccc(OCc5cccc(F)c5)c(Cl)c4)c3c2)o1 [Lapatinib] (first compound max 1 µM, 7x7, partner max 10 µM) | 0.177 | 0.242 | 0.568 | 0.916 | 1 | 0.231 | 0.655 | 0.64
